Experimental data taken from EP0324130A2, “8-Glycine, 16-X, Des-19-Leucine-Calcitonin” (RORER INTERNATIONAL (OVERSEAS) INC. (a Delaware corporation), priority 1987, dated 1989).
Peptide text beside a SMILES is read from it.

System: serum calcium concentration
Conditions: rat, in vivo, sc
Method: Biological Assay of Calcitonin Analogs in Vivo
The biological potency of 8-glycine, 16-alanine des-19-leucine salmon calcitonin was determined by comparing the reduction of serum calcium concentration which followed administration by graded doses of Gly^8, Ala^16, des-Ley^19-SCT and synthetic salmon calcitonin standard. Rats were divided into four groups of seven animals, and each group was assigned at random to a dose of standard or test solution. Low and high doses were chosen from the linear portion of the dose-response curve. For the salmon calcitonin standard, the values were 0.7 and 2.1 ng. peptide/100 g. […] This does approximates 3 and 9 MU/100 g. […] Peptides were given by subcutaneous injection (0.2 ml/100 g. BW) and blood was withdrawn 1 hour later for serum calcium determination. Sera are processed and analyzed within two hours of collection.

Q: For `CC(C)C[C@H](NC(=O)CNC(=O)[C@@H]1CSSC[C@H](N)C(=O)N[C@@H](CO)C(=O)N[C@@H](CC(N)=O)C(=O)N[C@@H](CC(C)C)C(=O)N[C@@H](CO)C(=O)N[C@@H]([C@@H](C)O)C(=O)N1)C(=O)NCC(=O)N[C@@H](CCCCN)C(=O)N[C@@H](CC(C)C)C(=O)N[C@@H](CO)C(=O)N[C@@H](CCC(N)=O)C(=O)N[C@@H](CCC(=O)O)C(=O)N[C@@H](C)C(=O)N[C@@H](Cc1c[nH]cn1)C(=O)N[C@@H](CCCCN)C(=O)N[C@@H](CCC(N)=O)C(=O)N[C@H](C(=O)N[C@@H](Cc1ccc(O)cc1)C(=O)N1CCC[C@H]1C(=O)N[C@@H](CCCNC(=N)N)C(=O)N[C@H](C(=O)N[C@@H](CC(N)=O)C(=O)N[C@H](C(=O)NCC(=O)N[C@@H](CO)C(=O)NCC(=O)N[C@H](C(=O)N1CCC[C@H]1C(N)=O)[C@@H](C)O)[C@@H](C)O)[C@@H](C)O)[C@@H](C)O` [Gly^8, Ala^16, des-Leu'^9-SCT, [8-Glycine, 16-Alanine, des-19-Leucine] salmon calcitonin] (HELM PEPTIDE1{C.S.N.L.S.T.C.G.L.G.K.L.S.Q.E.A.H.K.Q.T.Y.P.R.T.N.T.G.S.G.T.P.[am]}$PEPTIDE1,PEPTIDE1,1:R3-7:R3$$$V2.0), which biological potency is on record?
A: 2,500 IU/mg
